Data: patent EP0416248A2, “Use of vitamine B6 for reducing elevated serotonin levels” (priority 1989, dated 1991)
Read-outs that look alike come from different tables or passages of the source.

Tests used:
[1] = test system: glutamate pyruvate transaminase (GPT) in red blood cells; type: in vivo, human
Method: The inventor carried out clinical tests in human volunteers to investigate the effect of theophylline on glutamate pyruvate transaminase (GPT) in red blood cells, which plays an important biochemical role. […] When theophylline was administered there took place a dramatic drop in both PLP due to the inactivation of the kinase, and after approximately 28 days, also of RBC GPT levels as newly formed RBC (produced in the bone marrow under conditions of reduced PLP availability) begin to appear in the circulation.
As predicted, the body did indeed try to compensate for this by forming progressively more kinase. […] Thus the increased levels of kinase were unable to reverse the theophylline induced PLP deficiency and the concommittant GPT deficiency.

serotonin = type: in vivo, humans
Method: Studies on humans: The study was approved by the University Human Ethics Committee. Seven apparently healthy, young male volunteers aged 23 ± 2.4 ( ± SD) years gave informed consent to participate in the study. Each participant received theophylline (slow release) at a dosage of approximately 5 mg/kg body weight/day for one week. Thereafter, the theophylline dosage was increased to maintain plasma theophylline levels of approx. 10 mg/liter for 15 weeks. During the last week of the study (16th week) the participants were supplemented with 10 mg of vitamin B6 (B6) as herein described per day.
Clin. Chem. 35: 43-47. Serotonin concentrations were subsequently determined by HPLC according to the method of Tsuchiya et al.)

[2] = test system: vitamin B6 levels in human plasma and cells; assay: Applicant's investigations of enprofylline and vitamin B6 levels
PL-kinase = biological target: T1, PL-kinase (Homo sapiens, UniProt O00764); assay: Enzyme kinetic studies of PL-kinase inhibition; type: biochemical
T1 sequence (O00764 1-312): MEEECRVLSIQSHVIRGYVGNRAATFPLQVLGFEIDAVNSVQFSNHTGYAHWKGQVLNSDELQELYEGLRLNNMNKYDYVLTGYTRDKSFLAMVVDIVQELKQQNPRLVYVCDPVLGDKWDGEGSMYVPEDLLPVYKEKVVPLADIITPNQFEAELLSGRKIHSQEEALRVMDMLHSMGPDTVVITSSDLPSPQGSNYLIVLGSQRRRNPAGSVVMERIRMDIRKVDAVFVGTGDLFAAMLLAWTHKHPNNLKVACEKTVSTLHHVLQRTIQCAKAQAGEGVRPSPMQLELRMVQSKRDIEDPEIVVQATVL

[3] = test system: B6 dependent intracellular pathways; assay: Very low doses of PN in humans; type: in vivo; details: 0,02 mg/kg in humans

Q: Which “PLP deficiency induced by the xanthine bronchodilator” value ([1]; low dosage supplementation with Vitamin B6) does the source give for `Cc1ncc(CO)c(CO)c1O.Cl` [vitamin B6] here?
A: almost immediately reversed

Q: And the urinary serotonin excretion (serotonin; one week of B6 supplementation (10 mg per day) during theophylline therapy)?
A: returned urinary serotonin excretion to pre-treatment levels

Q: For `CCCn1c(=O)[nH]c(=O)c2[nH]cnc21` [enprofylline, 3-propylxanthine], which “effect on vitamin B6 levels in human plasma and cells” value [2] is on record?
A: adverse effect

Q: For `Cc1ncc(CO)c(C=O)c1O` [PL, pyridoxal], which half-life (in vivo) is on record?
A: 30 to 40 min

Q: For `Cn1c(=O)c2[nH]cnc2n(C)c1=O` [theophylline], which “type of PL-kinase inhibition” value (PL-kinase) is on record?
A: non-competitive

Q: What about the PLP ([1]; human, in vivo) of the same compound?
A: dramatic drop

Q: And the “PLP content and GPT content” value ([1]; human, in vivo)?
A: remained depressed for as long as 100 days

Q: And the “Urinary serotonin excretion, Basal” value (serotonin; 112 days of theophylline treatment, preceded by 1 week of vitamin B6 supplementation (10 mg/day), mean (SD))?
A: 0.562 (0.127) umol/24 h

Q: What about the “Urinary serotonin excretion after tryptophan loading” value (serotonin; human, in vivo) of the same compound?
A: the observed changes were not statistcially significant

Q: With `Cc1ncc(CO)c(CO)c1O` [PN, pyridoxine] as the compound, how does the half-life (plasma) read?
A: 12 min

Q: And the “extracellular PL and PLP levels” value [3]?
A: without affecting extracellular PL and PLP levels materially

Q: And the “influence on B6 dependent intracellular pathways” value [3]?
A: profound influence
